The CheMixHub ionic liquid set

Assay: xn = mol fraction of the nth substance listed

CC(C)C[C@H](NC(=O)CN)C(=O)O + CCCCCCCCCCCC[N+](C)(C)Cc1ccccc1.[Cl-] + O
electrical conductivity [S/m], 101 kPa
Conditions	293.15 K	298.15 K	303.15 K	308.15 K	313.15 K
x1 = 0.0009002, x2 = 0	0.00295	0.00335	0.0038	0.00435	0.00495
x1 = 0.001793, x2 = 0	0.00449	0.00524	0.00608	0.00702	0.00811

CCCCCCCCCCCCCC[P+](CCCCCC)(CCCCCC)CCCCCC.N#Cc1ccc[n-]1 + CCCCCC[n+]1ccn(C)c1.O=S(=O)([N-]S(=O)(=O)C(F)(F)F)C(F)(F)F
viscosity [mPa·s], 100 kPa
Conditions	x2 = 0	x2 = 0.2	x2 = 0.4	x2 = 0.504
283.15 K	–	–	940	810
288.15 K	800	790	–	–

CCCCCCCCCCCCCC[P+](CCCCCC)(CCCCCC)CCCCCC.[c-]1c[nH]nn1 + CCCCCC[n+]1ccn(C)c1.O=S(=O)([N-]S(=O)(=O)C(F)(F)F)C(F)(F)F
viscosity [mPa·s], 100 kPa
Conditions	278.15 K	283.15 K	288.15 K	293.15 K	298.15 K	303.15 K	308.15 K	313.15 K	318.15 K	323.15 K
x2 = 0.135	2499	1630	1087	744	527	382	284	215	166	131
x2 = 0.3	2448	1593	1061	725	511	369	274	206	159	125
x2 = 0.348	2031	1329	890	614	437	317	236	180	139	109
x2 = 0.45	1597	1057	717	498	358	262	197	151	118	94
x2 = 0.58	1211	820	567	402	294	219	168	131	104	84
x2 = 0.698	755	522	369	268	200	152	119	94	76	62
x2 = 0.849	417	295	214	159	122	96	77	62	51	–

CCCC(C)O (stereo unspecified) + CCCCCC[n+]1ccn(C)c1.O=[N+]([O-])[O-]
Conditions	viscosity [mPa·s]
323.15 K, 100 kPa, x2 = 0	1.39

C[NH2+]CCC=C1c2ccccc2CCc2ccccc21.[Cl-] + CCCCCC[n+]1ccn(C)c1.[Br-] + O
viscosity [mPa·s], 100 kPa
Conditions	288.15 K	298.15 K	308.15 K	318.15 K
x1 = 0.0002039, x2 = 0.00126	1.185	0.957	0.792	0.677
x1 = 0.000208, x2 = 0.0001801	1.17	0.938	0.775	0.658
x1 = 0.0002218, x2 = 0.0007201	1.178	0.948	0.785	0.658
x1 = 0.0005639, x2 = 0.0001801	1.181	0.948	0.785	0.667
x1 = 0.0005652, x2 = 0.001259	1.196	0.967	0.802	0.688
x1 = 0.0005656, x2 = 0.0007199	1.189	0.957	0.794	0.667
x1 = 0.0009086, x2 = 0.0007196	1.201	0.967	0.803	0.676
x1 = 0.0009302, x2 = 0.00018	1.192	0.958	0.795	0.676
x1 = 0.0009557, x2 = 0.001259	1.208	0.978	0.812	0.699
x1 = 0.001281, x2 = 0.001258	1.22	0.989	0.822	0.709
x1 = 0.001285, x2 = 0.0001799	1.204	0.969	0.805	0.685
x1 = 0.001294, x2 = 0.0007194	1.213	0.977	0.812	0.685
x1 = 0.001641, x2 = 0.0001799	1.217	0.98	0.815	0.694
x1 = 0.001649, x2 = 0.0007191	1.226	0.988	0.821	0.694
x1 = 0.001666, x2 = 0.001258	1.233	1.001	0.832	0.719
x1 = 0.001985, x2 = 0.0001798	1.23	0.991	0.825	0.703
x1 = 0.002032, x2 = 0.0007188	1.239	0.999	0.831	0.703
x1 = 0.002034, x2 = 0.001257	1.246	1.013	0.843	0.728
x1 = 0.002348, x2 = 0.0001797	1.244	1.002	0.835	0.712
x1 = 0.002385, x2 = 0.0007186	1.253	1.012	0.842	0.712
x1 = 0.002389, x2 = 0.001257	1.26	1.025	0.854	0.737
x1 = 0.00272, x2 = 0.0001797	1.258	1.014	0.845	0.721
x1 = 0.002762, x2 = 0.0007183	1.267	1.025	0.854	0.721
x1 = 0.002776, x2 = 0.001256	1.275	1.037	0.865	0.746
x1 = 0.003079, x2 = 0.0001796	1.273	1.026	0.855	0.73
x1 = 0.003114, x2 = 0.000718	1.282	1.037	0.866	0.731
x1 = 0.003126, x2 = 0.001256	1.291	1.049	0.876	0.755
x1 = 0.003445, x2 = 0.0001796	1.288	1.038	0.865	0.739
x1 = 0.003472, x2 = 0.001255	1.307	1.063	0.888	0.764
x1 = 0.003507, x2 = 0.0007177	1.297	1.05	0.878	0.741

CCCCCCCCCCCCCC[P+](CCCCCC)(CCCCCC)CCCCCC.N#Cc1ccc[n-]1 + CCCCCC[n+]1ccn(C)c1C.O=S(=O)([N-]S(=O)(=O)C(F)(F)F)C(F)(F)F
100 kPa
Conditions	viscosity [mPa·s]
278.15 K, x2 = 0.799	900
283.15 K, x2 = 0.601	900
288.15 K, x2 = 0	800
288.15 K, x2 = 0.098	870
288.15 K, x2 = 0.301	760

CCCC[n+]1ccn(C)c1.[Br-] + CCCCOCCO
viscosity [mPa·s], 100 kPa
Conditions	x1 = 0.1007	x1 = 0.2003	x1 = 0.3007	x1 = 0.4003	x1 = 0.5	x1 = 0.5992	x1 = 0.7002	x1 = 0.8003	x1 = 0.8978	x1 = 1
298.15 K	18.4	56.8	108	155	201	263	374	577	920	1451
303.15 K	12.2	32.5	59.6	86.7	115	152	212	320	511	837
308.15 K	9.08	22.8	40.7	59.4	77	98	132	187	297	506
313.15 K	6.85	16.2	29.1	41.7	54.2	67.6	87.9	122	188	330

CC(O)C(C)O (stereo unspecified) + CCCC[N+](C)(C)C.O=S(=O)([N-]S(=O)(=O)C(F)(F)F)C(F)(F)F
101 kPa
Conditions	viscosity [mPa·s]
323.15 K, x1 = 0.557	16.54
323.15 K, x1 = 0.6216	16.03
328.15 K, x1 = 0.557	13.6
333.15 K, x1 = 0.3137	15.23
333.15 K, x1 = 0.4515	13.1
333.15 K, x1 = 0.557	11.67
343.15 K, x1 = 1	6.7
